This note sets out measurements from PubChem BioAssay AID1259408 (Genetic Toxicology Data Bank (GENE-TOX), 2018).

The data set deals with GENE-TOX genotoxicity assays, various organisms and cells. Put plainly: GENE-TOX mutagenicity studies. Conditions: for call: Assay Type: In vivo carcinogenicity studies.
Where [1] appears, read: Species/Cell Type: Nonhuman, Assay Type: Sister-chromatid exchange (SCE) in vivo, Assay Code: SC3+D, Dose Response: With dose response, Evaluation Type: Evaluation B (Post-1980).
Where [2] appears, read: Species/Cell Type: Saccharomyces cerevisiae, Assay Type: Mitotic recombination or gene conversion, Assay Code: YEH-, Evaluation Type: Evaluation A (Pre-1980).
Setting [3] is: Species/Cell Type: Salmonella typhimurium (one or more of the five standard strains: TA98, TA100, TA1535, TA1537, and TA1538), Assay Type: Histidine reverse gene mutation, Ames assay, Assay Code: SAL+, Evaluation Type: Evaluation A (Pre-1980).
[4] abbreviates: Species/Cell Type: Salmonella typhimurium, Assay Type: Forward and reverse gene mutation, host-mediated assay, Assay Code: HMA+, Evaluation Type: Evaluation A (Pre-1980).
Setting [5] is: Species/Cell Type: Bacillus subtilis (H17 vs M45), Assay Type: Rec-assay, spot test, DNA effects (bacterial DNA repair), Assay Code: REW+, Evaluation Type: Evaluation A (Pre-1980).
Where [6] appears, read: Species/Cell Type: Nonhuman, Assay Type: Sister-chromatid exchange (SCE) in vitro, Assay Code: SC2+D, Dose Response: With dose response, Evaluation Type: Evaluation B (Post-1980).
[7] abbreviates: Species/Cell Type: Salmonella typhimurium (one or more of the five standard strains: TA98, TA100, TA1535, TA1537, and TA1538), Assay Type: Histidine reverse gene mutation, Ames assay, Assay Code: SALT, Evaluation Type: Evaluation A (Pre-1980).
Where [8] appears, read: Species/Cell Type: Nonhuman, Assay Code: CCG+, Evaluation Type: Evaluation A (Pre-1980).
Where [9] appears, read: Species/Cell Type: Allium cepa, Assay Type: Chromosome aberrations, Assay Code: ALC+, Evaluation Type: Evaluation A (Pre-1980).
Where [10] appears, read: Species/Cell Type: Arabidopsis species, Assay Type: Gene mutation, Assay Code: ARM+, Evaluation Type: Evaluation A (Pre-1980).

Structures are written as SMILES. Calls of active or inactive are those of the source. How the calls were made is not given here.

For `O=[N+]([O-])c1ccc(-c2ccccc2)cc1`, the mutagenic call is “active; positive” (Species/Cell Type: Escherichia coli polA (W3119 vs P3478), Assay Type: Rec-assay, DNA effects (bacterial DNA repair), Assay Code: RE1+, Evaluation Type: Evaluation A (Pre-1980)); “inactive; negative” (Species/Cell Type: Neurospora crassa, Assay Type: Aneuploidy, chromosome aberrations, Assay Code: NEN-, Evaluation Type: Evaluation A (Pre-1980)); “active; positive” (Species/Cell Type: Nonhuman, Assay Type: Sister-chromatid exchange (SCE) in vitro, Assay Code: SC2+, Evaluation Type: Evaluation B (Post-1980)); “active; positive” under setting [1]; “inactive; negative” under setting [2]; “active; positive” under setting [3]. The mutagenic call was “active; positive” under setting [4]; “active; positive” (Species/Cell Type: Syrian hamster embryo (SA7/SHE) cells, Assay Type: Cell transformation, viral enhanced, Assay Code: CT7+, Evaluation Type: Evaluation A (Pre-1980)); “active; positive” (Species/Cell Type: Syrian hamster embryo (SHE) cells, Assay Type: Cell transformation, clonal assay, Assay Code: CTC+, Evaluation Type: Evaluation A (Pre-1980)). For the same compound, where the note is “Species/Cell Type: Nonhuman, Assay Code: CCG+L, Evaluation Type: Evaluation A (Pre-1980)”, the call is “active; positive”.
`CC(C)Cl`: the mutagenic call was “inactive; negative” under setting [2] and “active; positive” under setting [3].
As to `Cc1c2cccc(F)c2c(C)c2c1ccc1ccccc12`, the mutagenic call (Species/Cell Type: Chinese hamster lung (V79) cells, Assay Type: Forward gene mutation at the HPRT or ouabain locus, Assay Code: V79+, Evaluation Type: Evaluation A (Pre-1980)) is “active; positive”.
For the compound `[O-][n+]1ccccc1`, the mutagenic call under setting [5] was “active; positive” and the mutagenic call (Species/Cell Type: Escherichia coli polA (W3119 vs P3478), Assay Type: Rec-assay, DNA effects (bacterial DNA repair), Assay Code: RE1-, Evaluation Type: Evaluation A (Pre-1980)) is “inactive; negative”.
As for `CCCCNC(=O)NS(=O)(=O)c1ccc(C)cc1`, the mutagenic call (Species/Cell Type: Mammalian polychromatic erythrocytes, Assay Type: Micronucleus test, chromosome aberrations, Assay Code: MNT+, Evaluation Type: Evaluation A (Pre-1980)) is “active; positive” and the mutagenic call under setting [1] was “active; positive”.
Take `Cc1[nH]cnc1CSCCN(N=O)C(=NC#N)N(C)N=O`: the mutagenic call under setting [6] is “active; positive”.
For `COC(=O)C[C@@H]1Cc2cc3c(-c4c(OC)cc(O)c5c(O)c6c(cc45)C[C@@H](CC(=O)OC)OC6=O)c(OC)cc(O)c3c(O)c2C(=O)O1`, the mutagenic call is “inactive; negative” under setting [2] and “no conclusion” under setting [7].
`Cc1cccc(O)c1C`: the mutagenic call by setting is: (Species/Cell Type: Human lymphocytes, Assay Type: Sister-chromatid exchange (SCE) in vitro, Assay Code: SCLT, Evaluation Type: Evaluation B (Post-1980)) “no conclusion”; (Species/Cell Type: Human, Assay Type: Sister-chromatid exchange (SCE) in vitro, Assay Code: SC1T, Evaluation Type: Evaluation B (Post-1980)) “no conclusion”.
On to `N`, for which, under “Species/Cell Type: Drosophila melanogaster, Assay Type: Sex-linked recessive lethal gene mutation, Assay Code: SRLT, Evaluation Type: Evaluation A (Pre-1980)”, the mutagenic call is recorded as “no conclusion”.
On to `Nc1nc(N)c2cc(S(=O)(=O)c3ccc4ccccc4c3)ccc2n1`, for which the mutagenic call under setting [7] is “no conclusion”.
As for `CCC(C)=O`, the mutagenic call runs as follows: (Species/Cell Type: Bacillus subtilis (H17 vs M45), Assay Type: Rec-assay, spot test, DNA effects (bacterial DNA repair), Assay Code: REWT, Evaluation Type: Evaluation A (Pre-1980)) “no conclusion”; (Species/Cell Type: Mammalian polychromatic erythrocytes, Assay Type: Micronucleus test, chromosome aberrations, Assay Code: MNT-, Evaluation Type: Evaluation B (Post-1980)) “inactive; negative”.
As for `C1CCNC1`, the mutagenic call (Species/Cell Type: Salmonella typhimurium, Assay Type: Forward and reverse gene mutation, host-mediated assay, Assay Code: HMA-, Evaluation Type: Evaluation A (Pre-1980)) was “inactive; negative”.
Consider `c1ccc(NNc2ccccc2)cc1`, for which the call under setting [8] was “active; positive”.
On to `Nc1nc(NO)c2[nH]cnc2n1`, for which the mutagenic call is “no conclusion” (Species/Cell Type: Escherichia coli WP2, Assay Type: Tryptophan reverse gene mutation, Assay Code: WP2T, Evaluation Type: Evaluation A (Pre-1980)); “no conclusion” (Species/Cell Type: Escherichia coli WP2 UVRA, Assay Type: Tryptophan reverse gene mutation, Assay Code: WPUT, Evaluation Type: Evaluation A (Pre-1980)); “active; positive” (Species/Cell Type: Neurospora crassa, Assay Type: Forward gene mutation, Assay Code: NEF+, Evaluation Type: Evaluation A (Pre-1980)).
Regarding `CCOCc1c(O)cc2c(c1O)C(=O)c1ccccc1C2=O`, the mutagenic call under setting [3] was “active; positive”.
Turning to `F[Si-2](F)(F)(F)(F)F`, the mutagenic call (Species/Cell Type: Mammalian polychromatic erythrocytes, Assay Type: Micronucleus test, chromosome aberrations, Assay Code: MNTT, Evaluation Type: Evaluation B (Post-1980)) is listed as “no conclusion”.
Regarding `COc1c(C)c2c(c(O)c1C/C=C(\C)CCC(=O)O)C(=O)OC2`, the mutagenic call is “inactive; negative” (Species/Cell Type: Bacillus subtilis (H17 vs M45), Assay Type: Rec-assay, spot test, DNA effects (bacterial DNA repair), Assay Code: REW-, Evaluation Type: Evaluation A (Pre-1980)); “active; positive” (Species/Cell Type: Nonhuman, Assay Type: Chromosome aberrations in vitro, Assay Code: CY&+, Evaluation Type: Evaluation A (Pre-1980)); “no conclusion” under setting [7].
Turning to `O=Nc1ccc(Nc2ccccc2)cc1`, the call under setting [8] is “active; positive”.
Turning to `Cc1cc(-c2ccccc2C)ccc1N`, the mutagenic call is “active; positive” (Species/Cell Type: Escherichia coli polA (W3110 vs P3478), Assay Type: Rec-assay, DNA effects (bacterial DNA repair), Assay Code: RE2+, Evaluation Type: Evaluation A (Pre-1980)); “no conclusion” (Species/Cell Type: Escherichia coli polA (W3119 vs P3478), Assay Type: Rec-assay, DNA effects (bacterial DNA repair), Assay Code: RE1T, Evaluation Type: Evaluation A (Pre-1980)); “active; positive” (Species/Cell Type: Rat primary hepatocytes, Assay Type: Unscheduled DNA synthesis (UDS) in vitro, DNA effects, Assay Code: UDP+, Evaluation Type: Evaluation A (Pre-1980)); “inactive; negative” under setting [2]; “active; positive” (Species/Cell Type: Salmonella typhimurium (one or more of the five standard strains: TA98, TA100, TA1535, TA1537, and TA1538), Assay Type: Histidine reverse gene mutation, Ames assay, Assay Code: SAL+*, Activation: With metabolic activation, Evaluation Type: Evaluation A (Pre-1980)); “active; positive” (Species/Cell Type: Salmonella typhimurium, Assay Type: Forward and reverse gene mutation, body fluid assay, Assay Code: BFU+, Evaluation Type: Evaluation A (Pre-1980)). The mutagenic call is “active; positive” under setting [4] and “active; positive” (Species/Cell Type: Syrian hamster embryo (SHE) cells, Assay Type: Cell transformation, clonal assay, Assay Code: CTC+D, Dose Response: With dose response, Evaluation Type: Evaluation A (Pre-1980)).
For the compound `NC(=O)c1ccccc1C(N)=O`, the call (Species/Cell Type: Nonhuman, Assay Code: CCG-, Evaluation Type: Evaluation A (Pre-1980)) was “inactive; negative”.
In the case of `CC(N)=S=O`, the mutagenic call (Species/Cell Type: Mammalian polychromatic erythrocytes, Assay Type: Micronucleus test, chromosome aberrations, Assay Code: MNT+U, Dose Response: Unconfirmed positive response, Evaluation Type: Evaluation B (Post-1980)) is “active; positive”.
With `[O]=[V]`, the mutagenic call under setting [5] is “active; positive”.
For `CS(=O)(=O)OC[C@@H](O)[C@H](O)COS(C)(=O)=O`, the mutagenic call is “active; positive” under setting [9] and “active; positive” under setting [10].
With `CN1CCN(c2ccc3nc(-c4ccc5nc(-c6ccc(O)cc6)[nH]c5c4)[nH]c3c2)CC1`, the mutagenic call is, setting by setting: (Species/Cell Type: Nonhuman, Assay Type: Sister-chromatid exchange (SCE) in vitro, Assay Code: SC2+D, Dose Response: With dose response, Evaluation Type: Evaluation A (Pre-1980)) “active; positive”; (Species/Cell Type: Nonhuman, Assay Type: Sister-chromatid exchange (SCE) in vivo, Assay Code: SC3-, Evaluation Type: Evaluation A (Pre-1980)) “inactive; negative”; (Species/Cell Type: Nonhuman, Assay Type: Sister-chromatid exchange (SCE) in vivo, Assay Code: SC3T, Evaluation Type: Evaluation B (Post-1980)) “no conclusion”.
With `Cc1cc2c3c(ccc2c2ccccc12)C(=O)CC3`, under setting [7], the mutagenic call was “no conclusion”.
`CS(=O)(=O)OCCCl`: the mutagenic call reads like this: under setting [10], “active; positive”; (Species/Cell Type: Drosophila melanogaster, Assay Type: Sex-linked recessive lethal gene mutation, Assay Code: SRL+, Evaluation Type: Evaluation A (Pre-1980)) “active; positive”; (Species/Cell Type: Drosophila melanogaster, Sex: Male, Assay Type: Heritable translocation test, chromosome aberrations, Assay Code: DHT+, Evaluation Type: Evaluation A (Pre-1980)) “active; positive”; (Species/Cell Type: Vicia faba, Assay Type: Chromosome aberrations, Assay Code: VIC+D, Dose Response: With dose response, Evaluation Type: Evaluation A (Pre-1980)) “active; positive”.
With `O=C(OCC1=CCN2CC[C@@H](OC(=O)c3ccc([N+](=O)[O-])cc3)[C@@H]12)c1ccc([N+](=O)[O-])cc1`, the mutagenic call under setting [9] was “active; positive”.
For `C=CC=O`, the mutagenic call under setting [6] was “active; positive”.
